molecular target: T1, Cholecystokinin receptor type A (Rattus norvegicus) (UniProt P30551); conditions: 10 uM
T1 sequence (whole entry): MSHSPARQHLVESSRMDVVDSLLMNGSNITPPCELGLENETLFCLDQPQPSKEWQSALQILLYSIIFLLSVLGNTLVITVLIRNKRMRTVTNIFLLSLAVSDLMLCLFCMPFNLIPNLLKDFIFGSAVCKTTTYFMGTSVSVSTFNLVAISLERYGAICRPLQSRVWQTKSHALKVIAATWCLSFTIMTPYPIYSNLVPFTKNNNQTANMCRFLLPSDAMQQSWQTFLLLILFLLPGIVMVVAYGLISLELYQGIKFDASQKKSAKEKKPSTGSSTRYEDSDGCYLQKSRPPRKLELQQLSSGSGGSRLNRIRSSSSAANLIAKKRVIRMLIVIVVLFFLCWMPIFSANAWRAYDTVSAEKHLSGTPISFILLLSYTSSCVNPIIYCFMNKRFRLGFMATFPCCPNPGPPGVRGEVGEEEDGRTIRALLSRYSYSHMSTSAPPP

Compound | inhibition [%]
O=C(NC1(C(=O)NCCc2ccccc2)Cc2ccccc2C1)OC1C2CC3CC(C2)CC1C3 (centres undefined) | 22
Cc1noc(C)c1-c1nc(CC(C)(NC(=O)OC2C3CC4CC(C3)CC2C4)C(=O)NCCc2ccccc2)no1 (centres undefined) | 20

molecular target: T2, Gastrin/cholecystokinin type B receptor (Mus musculus) (UniProt P56481); assay type: tissue-based; conditions: Cerebral cortex; 10 uM
T2 sequence (whole entry): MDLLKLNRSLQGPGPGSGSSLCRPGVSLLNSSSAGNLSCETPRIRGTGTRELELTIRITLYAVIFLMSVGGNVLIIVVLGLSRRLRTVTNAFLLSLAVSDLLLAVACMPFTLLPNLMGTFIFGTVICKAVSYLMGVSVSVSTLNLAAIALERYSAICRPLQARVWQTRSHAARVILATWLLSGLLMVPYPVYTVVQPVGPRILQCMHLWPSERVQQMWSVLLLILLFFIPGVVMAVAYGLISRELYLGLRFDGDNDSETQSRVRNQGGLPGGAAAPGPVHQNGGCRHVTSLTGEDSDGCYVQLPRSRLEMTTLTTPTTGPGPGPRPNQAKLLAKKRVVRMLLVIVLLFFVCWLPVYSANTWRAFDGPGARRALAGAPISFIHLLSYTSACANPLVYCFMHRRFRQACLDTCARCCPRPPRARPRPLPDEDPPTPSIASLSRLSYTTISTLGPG

Compound | inhibition [%]
Cc1noc(C)c1-c1nc(CC(C)(NC(=O)OC2C3CC4CC(C3)CC2C4)C(=O)NCCc2ccccc2)no1 (centres undefined) | 28

molecular target: T3, Cholecystokinin receptor type A (Rattus norvegicus, UniProt P30551); conditions: not given
T3 sequence (P30551 whole entry): T1 sequence (whole entry)

Compound | IC50 [nM]
C[C@@](Cc1c[nH]c2ccccc12)(NC(=O)OC1C2CC3CC(C2)CC1C3)C(=O)N[C@H](CO)[C@H](O)c1ccccc1 (some centres undefined) | 681
CN(C)C(=O)c1oc2ccccc2c1CC(C)(NC(=O)OC1C2CC3CC(C2)CC1C3)C(=O)NCCc1ccccc1 (centres undefined) | 65
O=C(O)CCC(=O)N[C@@H](CNC(=O)C(Cc1c[nH]c2ccc(F)cc12)NC(=O)OC1C2CC3CC(C2)CC1C3)c1ccccc1 (some centres undefined) | 1910
CC(Cc1ccc2c(c1)C(C)(C)CCC2(C)C)(NC(=O)OC1C2CC3CC(C2)CC1C3)C(=O)NCCc1ccccc1 (centres undefined) | 19800
CC(=O)Nc1nc(CC(C)(NC(=O)OC2C3CC4CC(C3)CC2C4)C(=O)NCCc2ccccc2)cs1 (centres undefined) | 5350
CC(Cc1c[nH]c2ccc(F)cc12)(NC(=O)OC1C2CC3CC(C2)CC1C3)C(=O)NC[C@H](NC(=O)CCC(=O)OCc1ccccc1)c1ccccc1 (some centres undefined) | 2650
O=C(O)CCC(=O)N[C@@H](CNC(=O)C1(NC(=O)OC2C3CC4CC(C3)CC2C4)Cc2ccccc2C1)c1ccccc1 (some centres undefined) | 1350
CC(Cc1ccc(Oc2ccccc2)cc1)(NC(=O)OC1C2CC3CC(C2)CC1C3)C(=O)N[C@H](CO)[C@H](O)c1ccccc1 (some centres undefined) | 616
Cc1noc(C)c1CC(C)(NC(=O)OC1C2CC3CC(C2)CC1C3)C(=O)NCCc1ccccc1 (centres undefined) | 6940
O=C(CCC(=O)OCc1ccccc1)N[C@@H](CNC(=O)C(Cc1c[nH]c2ccc(F)cc12)NC(=O)OC1C2CC3CC(C2)CC1C3)c1ccccc1 (some centres undefined) | 583
CC(Cc1c[nH]c2ccc(F)cc12)(NC(=O)OC1C2CC3CC(C2)CC1C3)C(=O)NC[C@H](NC(=O)CCC(=O)O)c1ccccc1 (some centres undefined) | 2180
C[C@](Cc1c[nH]c2ccc(F)cc12)(NC(=O)OC1C2CC3CC(C2)CC1C3)C(=O)NC[C@H](NC(=O)CCC(=O)O)c1ccccc1 (some centres undefined) | 2860
O=C(NC1(C(=O)NCCc2ccccc2)CC2(Cc3cccc4cccc(c34)C2)C1)OC1C2CC3CC(C2)CC1C3 (centres undefined) | 7220

molecular target: T2, Gastrin/cholecystokinin type B receptor (Mus musculus); assay type: tissue-based; conditions: Cerebral cortex; 1 uM

Compound | inhibition [%]
CC(CCCN)(NC(=O)OC1C2CC3CC(C2)CC1C3)C(=O)NCCc1ccccc1 (centres undefined) | 3
CC(CCCN1C(=O)c2ccccc2C1=O)(NC(=O)OC1C2CC3CC(C2)CC1C3)C(=O)NCCc1ccccc1 (centres undefined) | 8

molecular target: T1, Cholecystokinin receptor type A (Rattus norvegicus); conditions: 1 uM

Compound | inhibition [%]
COc1ccc(CC(C)(NC(=O)OC2C3CC4CC(C3)CC2C4)C(=O)N[C@H](CO)[C@H](O)c2ccccc2)cc1 (some centres undefined) | 43
